Measurements: US11207331B2, “Agents, compositions and methods for enhancing neurological function” (University of Southern California, priority 2007, dated 2021)

Tested on: Beta amyloid binding alcohol dehydrogenase (ABAD)
Assay: ABAD expression (Western blot, antibody ERAB)
Type: in vivo, mouse
Protocol: Further studies were conducted using a dosing regime of once a week for six months administered subcutaneously. Three and six months old 3×Tg-AD and age-matched non-Tg mice were chosen for the experiments, since AD pathology (Aβ) starts development at 3-month and abundant accumulation at 6-months. Allopregnanolone was subcutaneously (s.c.) administrated with 10 mg/kg once per week for 6 months. For neurogenesis and neurosurvival study, BrdU, IdU and CIdU were intraperitoneal (i.p.) injected at the first 5 days, mid 5 days and 5 days before sacrifice during 6-month treatment. After 6 months of allopregnanolone treatment, mice, at 9- and 12-month old, were sacrificed.
Beta amyloid binding alcohol dehydrogenase (ABAD) was probed with antibody ERAB (1:500, Abcam). […] Immunofluorescent staining using goat polyclonal anti-ERAB (Santa Cruz) confirmed the results obtained by Western Blot analysis. The concentration of ABAD immunoactive cells is less in THP-treated brains than in the brains treated with the vehicle.

CC(=O)[C@H]1CC[C@H]2[C@@H]3CC[C@H]4C[C@H](O)CC[C@]4(C)[C@H]3CC[C@]12C [THP, 3α-hydroxy-5α-pregnan-20-one]
decrease in ABAD level relative to vehicle (9-month 3×Tg mice): 30±4%
decrease in ABAD level relative to vehicle (12-month 3×Tg mice): 20±7%
